Measurements taken from ChEMBL document CHEMBL5223140, “Highly potent anti-inflammatory, analgesic and antioxidant activities of 3,5-disubstituted tetrahydro-2H-1,3,5-thiadiazine thiones” (Bioorg Med Chem Lett, 2023).

Legend:
Type in all cases: functional
Homo sapiens = organism: Homo sapiens; assay: Antiinflammatory activity against human blood incubated for 15 mins by thermostatic luminometric chemiluminescence based oxidative burst assay
Mus musculus [1] = assay: Analgesic activity against acetic acid induced mouse model assessed as reduction in writhing at 10 mg/kg, po administrated for 30 mins followed by acetic acid addition and measured after 20 mins by abdominal constriction test; set-up: scale not given: the % may be the effect or the level left; details: time 50 min
Mus musculus [2] = assay: Analgesic activity against acetic acid induced mouse model assessed as number of writhes at 10 mg/kg, po administrated for 30 mins followed by acetic acid addition and measured after 20 mins by abdominal constriction test; details: time 50 min
[3] = Antioxidant activity assessed as DPPH radical scavenging activity incubated for 30 mins by spectrophotometric analysis
Mus musculus [4] = assay: Analgesic activity against acetic acid induced mouse model assessed as number of writhes at 5 mg/kg, po administrated for 30 mins followed by acetic acid addition and measured after 20 mins by abdominal constriction test; details: time 50 min
Mus musculus [5] = assay: Analgesic activity against acetic acid induced mouse model assessed as reduction in writhing at 5 mg/kg, po administrated for 30 mins followed by acetic acid addition and measured after 20 mins by abdominal constriction test; set-up: scale not given: the % may be the effect or the level left; details: time 50 min
[6] = Homo sapiens, Blood, 0.25 h, read-out: IC50

In the case of `CCCCN1CN(CC(=O)OCC)CSC1=S`, the IC50 (Homo sapiens; [6]) is reported as 14.4 µM.

In the case of `CC(C)Cc1ccc(C(C)C(=O)O)cc1` (stereo unspecified) [IBUPROFEN], the IC50 (Homo sapiens; [6]) is reported as 11.2 µM.

In the case of `COc1ccc2c(c1)c(CC(=O)O)c(C)n2C(=O)c1ccc(Cl)cc1` [INDOMETHACIN], the Activity (Mus musculus [1]) is reported as 48.83% and the Activity (Mus musculus [2]) is reported as 22.88.

For `CC(c1ccccc1)N1CN(CCO)CSC1=S` (racemic), the IC50 (Homo sapiens) was “Not Active” and the IC50 [3] was 77.5 µM.

With `CCCCN1CSC(=S)N(C(C)c2ccccc2)C1` (racemic) the IC50 (Homo sapiens; [6]) was greater than 100 µM.

`C[C@@H](c1ccccc1)N1CSC(=S)N([C@@H](C)c2ccccc2)C1` showed an Activity (Mus musculus [4]) of 35, an IC50 [3] of 69.9 µM and an Activity (Mus musculus [5]) of 18.6%.

`CCCN1CSC(=S)N(C(C)c2ccccc2)C1` (racemic) showed an IC50 (Homo sapiens; [6]) of 16.9 µM and an IC50 [3] of 69.9 µM.

In the case of `O=C(O)CN1CN(CCO)CSC1=S`, the IC50 (Homo sapiens) is reported as “Not Active” and the IC50 [3] is reported as 74.6 µM.

In the case of `CCN1CN(CC(=O)O)CSC1=S`, the IC50 (Homo sapiens) is reported as “Not Active”.

`CC(c1ccccc1)N1CN(CC(=O)O)CSC1=S` (racemic) gave an IC50 (Homo sapiens; [6]) of 38.5 µM and an IC50 [3] of 67.7 µM.

Compound `C[C@H](c1ccccc1)N1CSC(=S)N([C@H](C)c2ccccc2)C1` has an Activity (Mus musculus [4]) of 39, an IC50 [3] of 65.9 µM and an Activity (Mus musculus [5]) of 9.3%.

In the case of `CCCN1CN(CC(=O)OC)CSC1=S`, the IC50 (Homo sapiens; [6]) is reported as 32.4 µM.

`CCCN1CN(CC(=O)OCc2ccccc2)CSC1=S` showed an IC50 (Homo sapiens; [6]) of 4.1 µM.

With `CCN1CSC(=S)N(CC(=O)O)C1` the IC50 (Homo sapiens) was “Not Active”.

For `CC(C)N1CSC(=S)N(C(C)c2ccccc2)C1` (racemic), the Activity (Mus musculus [4]) was 41.35, the IC50 (Homo sapiens; [6]) was 7.5 µM and the IC50 [3] was 78.9 µM. For the same compound, the Activity (Mus musculus [5]) was 4.65%.

Work on `CCCN1CN(CC(=O)OCC)CSC1=S` yielded an Activity (Mus musculus [4]) of 29.25, an IC50 (Homo sapiens; [6]) of 7.1 µM and an IC50 [3] of 87.5 µM. The Activity (Mus musculus [5]) was 32.05%.

Compound `COc1ccc(CN2CN(CC(=O)O)CSC2=S)cc1OC` has an IC50 (Homo sapiens; [6]) greater than 100 µM and an IC50 [3] of 81.4 µM.

In the case of `CCCCN1CSC(=S)N(CC(=O)O)C1`, the IC50 (Homo sapiens) is reported as “Not Active”.

With `CCCCN1CN(CC(=O)O)CSC1=S` the IC50 (Homo sapiens) was “Not Active”.

Compound `CCN1CSC(=S)N(C(C)c2ccccc2)C1` (racemic) has an IC50 (Homo sapiens; [6]) greater than 100 µM and an IC50 [3] of 61.2 µM.

For `CCCN1CN(CC(=O)O)CSC1=S`, the IC50 (Homo sapiens; [6]) was 23.8 µM and the IC50 [3] was 76.8 µM.

Compound `CCN1CSC(=S)N(CC)C1` has an Activity (Mus musculus [4]) of 40.21, an IC50 (Homo sapiens; [6]) of 5.1 µM and an Activity (Mus musculus [5]) of 6.97%.

Compound `CCCN1CSC(=S)N(CC(=O)O)C1` has an IC50 (Homo sapiens; [6]) of 39.7 µM and an IC50 [3] of 93.6 µM.

With `CC(C)N1CN(CC(=O)O)CSC1=S` the IC50 (Homo sapiens) was “Not Active” and the IC50 [3] was 87.5 µM.
